Data: ChEMBL document CHEMBL1130030, “Tyrosine kinase inhibitors. 11. Soluble analogues of pyrrolo- and pyrazoloquinazolines as epidermal growth factor receptor inhibitors: synthesis, biological evaluation, and modeling of the mode of binding” (J Med Chem, 1997)

Tests used:
[1] = molecular target: T1, Epidermal growth factor receptor (Homo sapiens, UniProt P00533); experiment: Inhibition of the phosphorylation of a random polyglutamic acid/tyrosine copolymer by human epidermal growth factor receptor(EGFR) prepared from human A431 carcinoma cells
T1 sequence (P00533 whole entry): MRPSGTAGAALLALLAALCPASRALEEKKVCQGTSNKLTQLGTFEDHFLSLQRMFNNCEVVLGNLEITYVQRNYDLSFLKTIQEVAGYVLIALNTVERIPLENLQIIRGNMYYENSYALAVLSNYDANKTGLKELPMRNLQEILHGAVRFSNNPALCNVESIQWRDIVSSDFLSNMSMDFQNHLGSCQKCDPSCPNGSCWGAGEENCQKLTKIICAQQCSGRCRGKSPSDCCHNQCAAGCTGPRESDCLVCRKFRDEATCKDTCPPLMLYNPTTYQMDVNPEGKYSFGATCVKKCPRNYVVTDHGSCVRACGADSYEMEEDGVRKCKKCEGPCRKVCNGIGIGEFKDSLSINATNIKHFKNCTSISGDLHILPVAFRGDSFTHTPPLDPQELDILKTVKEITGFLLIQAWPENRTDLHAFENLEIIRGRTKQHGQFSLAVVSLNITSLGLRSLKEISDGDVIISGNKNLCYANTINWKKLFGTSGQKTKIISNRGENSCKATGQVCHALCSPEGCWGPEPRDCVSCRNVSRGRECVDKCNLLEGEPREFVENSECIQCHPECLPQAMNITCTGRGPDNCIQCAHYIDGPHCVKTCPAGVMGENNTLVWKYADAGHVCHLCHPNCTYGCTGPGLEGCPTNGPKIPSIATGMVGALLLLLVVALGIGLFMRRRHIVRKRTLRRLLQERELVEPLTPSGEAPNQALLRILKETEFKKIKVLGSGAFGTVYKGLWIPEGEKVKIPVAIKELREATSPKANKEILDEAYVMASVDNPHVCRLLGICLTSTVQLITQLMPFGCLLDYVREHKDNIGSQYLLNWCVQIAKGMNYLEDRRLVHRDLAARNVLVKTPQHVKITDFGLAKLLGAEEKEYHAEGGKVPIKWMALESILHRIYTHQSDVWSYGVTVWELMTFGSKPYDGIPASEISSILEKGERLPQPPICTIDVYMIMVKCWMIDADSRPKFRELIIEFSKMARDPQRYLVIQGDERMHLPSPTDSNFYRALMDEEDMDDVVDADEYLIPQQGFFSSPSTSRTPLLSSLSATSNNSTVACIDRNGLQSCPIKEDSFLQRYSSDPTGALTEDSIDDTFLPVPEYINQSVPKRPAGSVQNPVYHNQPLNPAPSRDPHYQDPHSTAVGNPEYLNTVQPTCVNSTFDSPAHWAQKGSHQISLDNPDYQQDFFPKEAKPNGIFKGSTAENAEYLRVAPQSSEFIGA

[2] = molecular target: T1, Epidermal growth factor receptor; experiment: Inhibition of autophosphorylation of epidermal growth factor receptor prepared from human A431 carcinoma cells.

Row | IC50 [1] | IC50 [2] | SMILES
1 | 21 nM | 230 nM | CN(C)CCCn1ccc2cc3c(Nc4cccc(Br)c4)ncnc3cc21
2 | 1.6 nM | 49 nM | OCC(O)Cn1ccc2cc3c(Nc4cccc(Br)c4)ncnc3cc21 (configuration not stated)
3 | 3.4 nM | 9.6 nM | COC(=O)CN(C)Cc1c[nH]c2cc3ncnc(Nc4cccc(Br)c4)c3cc12
4 | > 10000 nM | – | COc1cccc2c(Nc3cccc(Br)c3)ncnc12
5 | 40 nM | 262 nM | CN(C)CCn1ncc2cc3c(Nc4cccc(Br)c4)ncnc3cc21
6 | 5.1 nM | 1780 nM | O=C(O)Cn1ccc2cc3c(Nc4cccc(Br)c4)ncnc3cc21
7 | > 10000 nM | – | Cc1nc(Nc2cccc(Br)c2)c2ccccc2n1
8 | 0.72 nM | 584 nM | CN(CC(=O)O)Cc1c[nH]c2cc3ncnc(Nc4cccc(Br)c4)c3cc12
9 | 3.5 nM | 135 nM | OCCN(CCO)Cc1c[nH]c2cc3ncnc(Nc4cccc(Br)c4)c3cc12
10 | 2.6 nM | 9.7 nM | CN(C)Cc1c[nH]c2cc3ncnc(Nc4cccc(Br)c4)c3cc12
11 | – | 20 nM | Brc1cccc(Nc2ncnc3cc4[nH]ncc4cc23)c1
12 | 3.7 nM | 16 nM | Brc1cccc(Nc2ncnc3cc4c(ccn4CCN4CCOCC4)cc23)c1
13 | 41 nM | 145 nM | CN(C)CCn1ccc2cc3c(Nc4cccc(Br)c4)ncnc3cc21
14 | 0.37 nM | 13 nM | Cn1ncc2cc3c(Nc4cccc(Br)c4)ncnc3cc21
15 | > 100000 nM | – | Brc1cccc(Nc2nccc3ccccc23)c1
16 | 7.5 nM | 81 nM | CN(C)CCN(C)Cc1c[nH]c2cc3ncnc(Nc4cccc(Br)c4)c3cc12
17 | 0.8 nM | 22 nM | Cn1ccc2cc3c(Nc4cccc(Br)c4)ncnc3cc21
18 | 12 nM | 318 nM | OCC(O)Cn1ncc2cc3c(Nc4cccc(Br)c4)ncnc3cc21 (configuration not stated)

Row | SMILES | IC50 [1] | IC50 [2]
19 | Brc1cccc(Nc2ncnc3cc4c(cnn4CCCN4CCOCC4)cc23)c1 | 8.8 nM | 77 nM
20 | Brc1cccc(Nc2ncnc3cc4[nH]cc(CN5CCOCC5)c4cc23)c1 | 4.8 nM | 9.6 nM
21 | Brc1cccc(Nc2ncnc3cc4[nH]ccc4cc23)c1 | – | 22 nM
